# Source: ChEMBL document CHEMBL5500427, “Discovery of New Phenyltetrazolium Derivatives as Ferroptosis Inhibitors for Treating Ischemic Stroke: An Example Development from Free Radical Scavengers” (J Med Chem, 2024)
# pIC50: −log10 of the molar value. Active and inactive are the calls of the source. The calls are words filed in the database; no cut-off is given here.
# What was measured:
# HT-1080 [1] = experiment: Anti-ferroptotic activity against Erastin-induced human HT-1080 cells assessed as inhibition of ferroptosis incubated for 72 hrs by CCK-8 assay; assay type: functional, cell-based; conditions: for pIC50: Homo sapiens, HT-1080, 72 h, read-out: IC50
# [2] = Antioxidant activity assessed as DPPH radical scavenging activity at 0.4 uM incubated for 30 mins by Beckman Coulter analysis relative to control; assay type: functional
# HT-1080 [3] = experiment: Anti-ferroptotic activity against Erastin-induced ferroptosis in human HT-1080 cells assessed as inhibition of lipid ROS production at 0.5 uM incubated for 24 hrs by C11-BODIPY 581/591 based flow cytometry relative to control; assay type: functional
# HT-1080 [4] = experiment: Anti-ferroptotic activity against Erastin-induced ferroptosis in human HT-1080 cells assessed as inhibition of lipid ROS production at 10 uM incubated for 24 hrs by C11-BODIPY 581/591 based flow cytometry relative to control; assay type: functional; conditions: HT-1080, 24 h, values are per cent of control
# N2a [5] = experiment: Cytoprotective activity against oxygen-glucose deprivation/reoxygenation induced cell injury in mouse N2a cells assessed as increase in cell viability at 1 uM incubated for 2 hrs under hypoxia condition and measured after 24 hrs; assay type: functional, cell-based; conditions: time 26.0 hrs
# N2a [6] = experiment: Cytoprotective activity against oxygen-glucose deprivation/reoxygenation induced cell injury in mouse N2a cells assessed as upregulation of SLC7A11 expression at 1 uM incubated for 2 hrs under hypoxia condition and measured after 24 hrs by Western blotting analysis; assay type: functional, cell-based; conditions: time 26.0 hrs
# N2a [7] = experiment: Cytoprotective activity against oxygen-glucose deprivation/reoxygenation induced cell injury in mouse N2a cells assessed as upregulation of GPX4 expression at 1 uM incubated for 2 hrs under hypoxia condition and measured after 24 hrs by Western blotting analysis; assay type: functional, cell-based; conditions: time 26.0 hrs
# HEK293 = experiment: Cytotoxicity against human HEK293 cells incubated for 2 hrs by CCK-8 assay; assay type: toxicity, cell-based; conditions: hek293, 2 h
# [8] = Cytotoxicity against human H6C7 cells incubated for 2 hrs by CCK-8 assay; assay type: toxicity, cell-based; conditions: h6c7, 2 h
# [9] = Tmax in ICR mouse at 1 mg/kg,iv administration measured upto 24 hrs by LC-MS/MS analysis; assay type: ADME, organism-based; conditions: in vivo
# [10] = Half life in ICR mouse at 1 mg/kg,iv administration measured upto 24 hrs by LC-MS/MS analysis; assay type: ADME, organism-based; conditions: in vivo
# [11] = Cmax in ICR mouse at 1 mg/kg,iv administration measured upto 24 hrs by LC-MS/MS analysis; assay type: ADME, organism-based; conditions: in vivo
# [12] = AUC (0 to t) in ICR mouse at 1 mg/kg,iv administration measured upto 24 hrs by LC-MS/MS analysis; assay type: ADME, organism-based; conditions: in vivo
# [13] = AUC (0 to infinity) in ICR mouse at 1 mg/kg,iv administration measured upto 24 hrs by LC-MS/MS analysis; assay type: ADME, organism-based; conditions: in vivo
# [14] = Drug concentration in ICR mouse liver at 1 mg/kg,iv administration measured after 0.083 hrs by LC-MS/MS analysis; assay type: ADME, organism-based; conditions: in vivo
# [15] = Drug concentration in ICR mouse liver at 1 mg/kg,iv administration measured after 0.25 hrs by LC-MS/MS analysis; assay type: ADME, organism-based; conditions: in vivo
# [16] = Drug concentration in ICR mouse liver at 1 mg/kg,iv administration measured after 0.5 hrs by LC-MS/MS analysis; assay type: ADME, organism-based; conditions: in vivo
# [17] = Drug concentration in ICR mouse liver at 1 mg/kg,iv administration measured after 1 hrs by LC-MS/MS analysis; assay type: ADME, organism-based; conditions: in vivo
# [18] = Drug concentration in ICR mouse kidney at 1 mg/kg,iv administration measured after 0.083 hrs by LC-MS/MS analysis; assay type: ADME, organism-based; conditions: in vivo
# [19] = Drug concentration in ICR mouse kidney at 1 mg/kg,iv administration measured after 0.25 hrs by LC-MS/MS analysis; assay type: ADME, organism-based; conditions: in vivo
# [20] = Drug concentration in ICR mouse kidney at 1 mg/kg,iv administration measured after 0.5 hrs by LC-MS/MS analysis; assay type: ADME, organism-based; conditions: in vivo
# [21] = Drug concentration in ICR mouse kidney at 1 mg/kg,iv administration measured after 1 hrs by LC-MS/MS analysis; assay type: ADME, organism-based; conditions: in vivo
# [22] = Drug concentration in ICR mouse lung at 1 mg/kg,iv administration measured after 0.083 hrs by LC-MS/MS analysis; assay type: ADME, organism-based; conditions: in vivo
# [23] = Drug concentration in ICR mouse lung at 1 mg/kg,iv administration measured after 0.25 hrs by LC-MS/MS analysis; assay type: ADME, organism-based; conditions: in vivo
# [24] = Drug concentration in ICR mouse lung at 1 mg/kg,iv administration measured after 0.5 hrs by LC-MS/MS analysis; assay type: ADME, organism-based; conditions: in vivo
# [25] = Drug concentration in ICR mouse brain at 1 mg/kg,iv administration measured after 0.083 hrs by LC-MS/MS analysis; assay type: ADME, organism-based; conditions: in vivo
# [26] = Drug concentration in ICR mouse brain at 1 mg/kg,iv administration measured after 0.25 hrs by LC-MS/MS analysis; assay type: ADME, organism-based; conditions: in vivo
# [27] = Drug concentration in ICR mouse brain at 1 mg/kg,iv administration measured after 0.5 hrs by LC-MS/MS analysis; assay type: ADME, organism-based; conditions: in vivo
# Mus musculus [28] = experiment: Neuroprotective activity against transient middle cerebral artery occlusion induced ischemia stroke female SPF C57 mouse model assessed as reduction in cerebral infarct volume at 5 mg/kg,iv measured after 24 hrs by TTC staining based analysis relative to control; assay type: functional; set-up: scale not given: the % may be the effect or the level left
# Mus musculus [29] = experiment: Neuroprotective activity against transient middle cerebral artery occlusion induced ischemia stroke female SPF C57 mouse model assessed as reduction in neurological deficit score at 5 mg/kg,iv measured after 24 hrs; assay type: functional
# Mus musculus [30] = experiment: Neuroprotective activity against transient middle cerebral artery occlusion induced ischemia stroke female SPF C57 mouse model assessed as upregulation of SLC7A11 expression at 5 mg/kg,iv measured after 24 hrs by Western blotting analysis; assay type: functional, organism-based
# Mus musculus [31] = experiment: Neuroprotective activity against transient middle cerebral artery occlusion induced ischemia stroke female SPF C57 mouse model assessed as upregulation of GPX expression at 5 mg/kg,iv measured after 24 hrs by Western blotting analysis; assay type: functional, organism-based
# Mus musculus [32] = experiment: Neuroprotective activity against transient middle cerebral artery occlusion induced ischemia stroke female SPF C57 mouse model assessed as reduction in cerebral edema at 5 mg/kg,iv measured after 24 hrs; assay type: functional, organism-based
# [33] = Apparent permeability of compound at 10 uM incubated for 16 hrs by PAMPA based LC-MS/MS analysis; assay type: ADME
# MEF = experiment: Anti-ferroptotic activity against tamoxifen induced Gpx4 knockout mouse MEF cells assessed as inhibition of ferroptosis incubated for 72 hrs by AquaBluerTM assay; assay type: functional, cell-based
# HT-1080 [34] = experiment: Anti-ferroptotic activity against Erastin-induced ferroptosis in human HT-1080 cells assessed as inhibition of lipid peroxidation production at 10 uM incubated for 24 hrs by C11-BODIPY 581/591 based flow cytometry relative to control; assay type: functional; conditions: HT-1080, 24 h, values are per cent of control
# [35] = Cytotoxicity against human L02 cells incubated for 2 hrs by CCK-8 assay; assay type: toxicity, cell-based
# Hippocampus = experiment: Anti-ferroptotic activity against glutamate-induced rat Hippocampus assessed as inhibition of ferroptosis; assay type: functional, tissue-based
# HT-1080 [36] = experiment: Anti-ferroptotic activity against Erastin-induced human HT-1080 cells assessed as inhibition of ferroptosis incubated for 24 hrs by Alamar blue dye based assay; assay type: functional, cell-based; conditions: HT-1080, 24 h
structure (smiles),measurement,setting,value
Cc1cc(NC2CCCCC2)ccc1-c1nnn(C)n1,pIC50,HT-1080 [1],6.00
COc1cc(NC2CCCCC2)c(N)cc1-c1nnn(C)n1,pIC50,HT-1080 [1],6.10
CCn1nnc(-c2ccc(NC3CCCCC3)cc2)n1,pIC50,HT-1080 [1],5.07
FC(F)(F)Cn1nnc(-c2ccc(NC3CCCCC3)cc2)n1,pIC50,HT-1080 [1],< 5.00
COc1ccc(Nc2ccc(-c3nnn(C)n3)cc2NC2CCCCC2)cc1,pIC50,HT-1080 [1],7.09
Cn1nnc(-c2ccc(NC3CCCCC3)cn2)n1,pIC50,HT-1080 [1],< 6.00
Cn1nnc(-c2cccc(NC3CCCCC3)c2N)n1,pIC50,HT-1080 [1],< 6.00
N#CCn1nnc(-c2ccc(NC3CCCCC3)cc2)n1,pIC50,HT-1080 [1],5.09
Cn1nnc(-c2ccc(NC3CCCCC3)cc2Cl)n1,pIC50,HT-1080 [1],< 6.00
Cn1nnc(-c2ccc(N)c(NC3CCCCC3)c2)n1,pIC50,HT-1080 [1],7.66
same,inhibition,[2],41.3%
same,inhibition at 0.5 µM,HT-1080 [3],0.3%
same,"response, % of control at 10 µM",HT-1080 [4],0.57%
same,Activity,N2a [5],Active
same,Activity,N2a [6],Active
same,Activity,N2a [7],Active
same,Activity,HEK293,Toxic
same,Activity,[8],Toxic
same,Tmax,[9],4.8 min
same,half-life,[10],6 min
same,Cmax,[11],367 ng/mL
same,AUC(0-t) at 24 h,[12],91.5 ng·h/mL
same,AUC(0-inf),[13],95.6 ng·h/mL
same,Ct,[14],0.32 mg/kg
same,Ct,[15],0.24 mg/kg
same,Ct,[16],0.09 mg/kg
same,Ct,[17],0.02 mg/kg
same,Ct,[18],0.41 mg/kg
same,Ct,[19],0.38 mg/kg
same,Ct,[20],0.12 mg/kg
same,Ct,[21],0.03 mg/kg
same,Ct,[22],0.37 mg/kg
same,Ct,[23],0.19 mg/kg
same,Ct,[24],0.1 mg/kg
same,Ct,[25],0.09 mg/kg
same,Ct,[26],0.04 mg/kg
same,Ct,[27],0.02 mg/kg
same,Activity,Mus musculus [28],12.03%
same,Activity,Mus musculus [29],2
same,Activity,Mus musculus [30],Active
same,Activity,Mus musculus [31],Active
same,Activity,Mus musculus [32],Active
same,"Papp at 16 h, 10 µM",[33],3.89 ×10⁻⁶ cm/s
O=C1C[C@@H](c2ccc(O)c(O)c2)Oc2cc(O[C@@H]3O[C@H](CO)[C@@H](O)[C@H](O)[C@H]3O)cc(O)c21,pIC50,HT-1080 [1],5.00
Cn1nnc(-c2cnc(NC3CCCCC3)s2)n1,pIC50,HT-1080 [1],< 6.00
Cc1c(-c2nnn(C)n2)ccc(NC2CCCCC2)c1N,pIC50,HT-1080 [1],7.36
CCCCCCCCNc1ccc(-c2nnn(C)n2)cc1N,pIC50,HT-1080 [1],6.30
Cn1nnc(-c2ccc(NC3CCCCC3)c(N)c2)n1,pIC50,HT-1080 [1],7.52
Cn1nnc(-c2ccc(O)c(NC3CCCCC3)c2)n1,pIC50,HT-1080 [1],< 6.00
O=C1c2c(O)cc(O)cc2O[C@H](c2ccc(O)c(O)c2)[C@H]1O [(+)-TAXIFOLIN],pIC50,HT-1080 [1],< 5.00
Cn1nnc(-c2c(F)cc(NC3CCCCC3)cc2F)n1,pIC50,HT-1080 [1],< 6.00
O=S1(=O)CCN(Cc2cc(NC3CCOCC3)c3[nH]c(-c4ccccc4)cc3c2)CC1,pIC50,HT-1080 [1],5.22
Cn1nnc(-c2cc(N)c(NC3CCCCC3)cc2Cl)n1,pIC50,HT-1080 [1],7.77
Clc1cccc(CNC2=Nc3ccccc3NC23CCNCC3)c1,pIC50,MEF,7.66
Cn1nnc(-c2ccc(NC3CCCCC3)cc2)n1,pIC50,HT-1080 [1],6.91
same,"response, % of control at 10 µM",HT-1080 [34],5.96%
Cn1nnc(-c2cc(N)c(NC3CCCCC3)cc2F)n1,pIC50,HT-1080 [1],7.31
same,inhibition,[2],35.3%
same,Activity,N2a [5],Active
same,IC50 at 2 h,[35],12300 nM
COc1cc(-c2nnn(C)n2)ccc1NC1CCCCC1,pIC50,HT-1080 [1],< 6.00
Cn1nnc(-c2ccc(NC3CCCCC3)cc2F)n1,pIC50,HT-1080 [1],< 6.00
CCOC(=O)c1ccc(NC2CCCCC2)c(N)c1,pIC50,HT-1080 [1],7.22
same,"response, % of control at 10 µM",HT-1080 [34],0.58%
same,inhibition,[2],inactive
same,"response, % of control at 10 µM",HT-1080 [4],2.29%
same,Activity,N2a [6],Active
same,Activity,N2a [7],Active
same,Activity,Mus musculus [28],9.98%
same,"Papp at 16 h, 10 µM",[33],6.76 ×10⁻⁶ cm/s
same,pIC50,Hippocampus,7.05
CNc1ccc(-c2nnn(C)n2)cc1,pIC50,HT-1080 [1],5.09
Cn1nnc(-c2ccc(NC3CCCCC3)cc2C(F)(F)F)n1,pIC50,HT-1080 [1],< 6.00
Cn1nnc(-c2ccc(Nc3cccnc3)c(NC3CCCCC3)c2)n1,pIC50,HT-1080 [1],6.73
Cn1nnc(-c2ccc(NC3CCCCC3)cc2N)n1,pIC50,HT-1080 [1],< 6.00
CCOC(=O)c1ccc(NC2CCCCC2)c(NCc2ccccc2)c1,pIC50,HT-1080 [36],8.22
COc1ccc(Nc2ccc(-c3nnn(C)n3)cc2NC2CCCCC2)cn1,pIC50,HT-1080 [1],7.12
Cc1cc(NC2CCCCC2)c(N)cc1-c1nnn(C)n1,pIC50,HT-1080 [1],7.15
Cn1nnc(-c2ccc(NC3CCCCC3)c(NCc3ccncc3)c2)n1,pIC50,HT-1080 [1],< 6.00
c1cc(-c2nn[nH]n2)ccc1NC1CCCCC1,pIC50,HT-1080 [1],< 5.00
Cn1nnc(-c2ccc(NC3CCCCC3)c(NCc3ccccc3)c2)n1,pIC50,HT-1080 [1],< 6.00
CN(c1ccc(-c2nnn(C)n2)cc1)C1CCCCC1,pIC50,HT-1080 [1],< 5.00
Oc1cc(O)cc(/C=C/c2ccc(O)cc2O)c1 [OXYRESVERATROL],IC50,HT-1080 [1]; ht-1080,Not Active
